Experiments:
Assay type in all cases: functional
Conditions in all cases: Homo sapiens, read-out: ED50 (the source's name)
MLM = experiment: Cytotoxic concentration required to inhibit 50% cell growth in MLM melanoma cell lines
HT-29 = experiment: Cytotoxic concentration required to inhibit 50% cell growth in HT-29 colon adenocarcinoma cell lines
A549 = experiment: Cytotoxic concentration required to inhibit 50% cell growth in A-549 lung carcinoma cell lines
MCF7 = experiment: Cytotoxic concentration required to inhibit 50% cell growth in MCF-7 breast carcinoma cell lines
SK-MEL-5 = experiment: Cytotoxic concentration required to inhibit 50% cell growth in SKMEL-5 melanoma cell lines

Structure (SMILES)	EC50 (MLM) [µM]	EC50 (HT-29) [µM]	EC50 (A549) [µM]	EC50 (MCF7) [µM]	EC50 (SK-MEL-5) [µM]
COc1cc(/C=C/c2ccc(Cl)cc2)cc(OC)c1OC	> 25	> 25	> 25	> 25	> 25
COc1cc(CCc2cc(OC)c(OC)c(OC)c2)cc(OC)c1OC	> 25	> 25	> 25	> 25	> 25
COc1cc(CCc2ccc(OC)c(OC)c2OC)cc(OC)c1OC	> 25	> 25	> 25	> 25	> 25
COc1cc(/C=C\c2ccc(O[Si](C)(C)C(C)(C)C)cc2)cc(OC)c1OC	17.2	10.6	11	7.29	7.59
COc1cc(CCc2ccccc2)cc(OC)c1OC	> 25	> 25	> 25	> 25	> 25
COc1cc(OC)c(OC)cc1/C=C/c1ccccc1	> 25	> 25	> 25	8.5	> 25
COc1ccc(CNc2cc(OC)c(OC)c(OC)c2)cc1OC	> 25	> 25	> 25	> 25	> 25
COc1cccc(/C=C/c2cc(OC)c(OC)c(OC)c2)c1	> 25	7.3	9.8	12.2	0.5
COc1ccc(/C=C\c2ccc(OC)c(OC)c2OC)cc1	10.9	1	0.97	0.23	1.1
COc1cc(/C=C\c2ccc([N+](=O)[O-])cc2)cc(OC)c1OC	> 25	> 25	> 25	> 25	> 25
COc1cc(CCc2ccc(N)cc2)cc(OC)c1OC	> 25	24.6	12.2	11.9	12.7
COc1cc(/C=C/c2cc(OC)c(OC)c(OC)c2)cc(OC)c1OC	> 25	> 25	> 25	> 25	> 25
COc1cc(/C=C/c2ccc(OC(C)=O)cc2)cc(OC)c1OC	13	5.4	9.7	9.6	4.6
COc1cc(CNc2cc(OC)c(OC)c(OC)c2)cc(OC)c1OC	> 25	> 25	> 25	> 25	> 25
COc1cc(/C=C\c2ccc(O)cc2)cc(OC)c1OC	12.6	1.75	12.7	5.7	2.27
COc1cccc(CCc2cc(OC)c(OC)c(OC)c2)c1	> 25	7.6	11.7	12.4	9.2
COc1cc(/C=C/c2ccc(N)cc2)cc(OC)c1OC	> 25	> 25	> 25	> 25	> 25
COc1ccc(CCc2ccccc2)c(OC)c1OC	> 25	> 25	> 25	> 25	> 25
COc1ccc(CCc2ccccc2)cc1OC	> 25	> 25	> 25	> 25	> 25
COc1cc(/C=C/c2ccc(O)cc2)cc(OC)c1OC	24.2	> 25	> 25	18.6	11.6
COc1ccc(NC(=O)c2cc(OC)c(OC)c(OC)c2)cc1	> 25	22.7	14.1	12.2	> 25
COc1ccccc1/C=C/c1cc(OC)c(OC)c(OC)c1	> 25	12.1	12.2	18	13.5
COc1cc(OC)c(OC)cc1/C=C/c1cc(OC)c(OC)c(OC)c1	> 25	> 25	> 25	> 25	> 25
COc1cc(CCc2cc(OC)c(OC)c(OC)c2)cc(OC)c1	> 25	> 25	> 25	> 25	> 25
COc1ccc(NC(=O)c2cc(OC)cc(OC)c2)cc1	> 25	14.5	9.02	5.47	11.9
COc1cc(/C=C/c2ccc(Br)cc2)cc(OC)c1OC	5.13	12.7	6.47	9.14	6.53
COc1cc(/C=C/c2ccc(OC)c(OC)c2)cc(OC)c1 [(E)-3,4,3',5'-TETRAMETHOXYSTILBENE]	> 25	> 25	> 25	> 25	> 25
COc1ccc(/C=C\c2cc(OC)c(OC)c(OC)c2)cc1O [COMBRETASTATIN A4]	1.4e-05	1.2e-05		3.8e-06	

— ChEMBL document CHEMBL1125188, “Synthesis and evaluation of stilbene and dihydrostilbene derivatives as potential anticancer agents that inhibit tubulin polymerization” (J Med Chem, 1991)
